The text below walks through data of patent US5502209A, “Benzopyrancarboxamide derivatives, salts thereof, process for the preparation of same and use thereof” (Sanwa Kagaku Kenkyusho Co., Ltd., priority 1994, dated 1996).

The subject of data set [1] is 5-HT4 receptor. The note with it: known compound, as said in the art; cited from earlier work.
Data set [2] addresses T1, 5-HT4 receptor (Rattus norvegicus, UniProt Q62758).
T1 construct: a muscular sample of mucous membrane in esophgus exentrated from a rat; from tissue; host or cells: rat oesophagus, muscularis mucosae (isolated)
Briefly: Agonisting action to 5-HT4 receptor: relaxation of carbachol-contracted muscular sample of mucous membrane of rat esophagus (Baxter et al.). Format: cell-based. To be noted: carbachol contraction, read-out: P EC50 (negative logarithm of concentration causing 50% relaxation) (converted). The source says: (Agonisting action to 5-HT4 receptor)
Pharmacol.", Vol. 343, page 439 (1991)!.
Namely, a relaxation of the Test and Control compounds in various concentration showing to carbachol contradiction of a muscular sample of mucous membrane in esophgus exentrated from a rat was checked to calculate a concentration causing 50% relaxation and compared with its negative logarithm (P EC50).

In the next data set the test system is dopamine D2 receptor. The note with it: rat, in vivo, po, 100 mg/kg. The source says:
The compounds obtained by Examples as well as known compound (Metoclopramide) were selected as Test and Control Compounds, respectively. The compound was orally administered to rats to observe for 2 days general symptoms including catalepsy and blepharoptosis due to antagonistic action of the compound to dopamine D2 receptor.

Structures can show the parent of a compound that is named as a salt.

T1 sequence (Q62758 whole entry): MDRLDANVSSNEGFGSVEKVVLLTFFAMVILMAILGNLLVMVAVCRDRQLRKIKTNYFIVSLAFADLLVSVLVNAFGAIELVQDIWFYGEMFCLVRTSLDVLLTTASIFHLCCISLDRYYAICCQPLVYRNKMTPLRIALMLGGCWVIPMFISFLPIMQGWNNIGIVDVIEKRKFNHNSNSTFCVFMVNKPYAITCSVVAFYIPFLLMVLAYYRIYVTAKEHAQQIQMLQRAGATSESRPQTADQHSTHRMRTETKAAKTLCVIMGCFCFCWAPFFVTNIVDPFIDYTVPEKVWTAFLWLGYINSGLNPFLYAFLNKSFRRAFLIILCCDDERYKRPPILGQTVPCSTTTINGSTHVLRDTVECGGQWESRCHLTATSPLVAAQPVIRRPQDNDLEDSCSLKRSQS

On to `COc1cc(N)c(Cl)cc1C(=O)NC1CCN(CCCOc2ccc(F)cc2)CC1OC` (stereo not drawn) [Cisapride], for which the “agonisting action to 5-HT4 receptor” value with 5-HT4 receptor [1] is “strong agonisting action to 5-HT4 receptor”.
`Nc1c(Cl)cc(C(=O)NCCC23CCCN2CCC3)c2c1CCCO2` [Example 1, 5-Amino-N-2-(1-azabicyclo 3.3.0!octan-5-yl)ethyl!-6-chloro-3,4-dihydro-2H-1-benzopyran-8-carboxamide·1/2 fumarate]: the EC50 on 5-HT4 receptor [2] is 0.00501 µM.
For `CC1CCc2c(N)c(Cl)cc(C(=O)NCCC34CCCN3CCC4)c2O1` (stereo not drawn) [Example 2, 5-Amino-N-2-(1-azabicyclo 3.3.0!octan-5-yl)ethyl!-6-chloro-3,4-dihydro-2-methyl-2H-1-benzopyran-8-carboxamide·1/2 fumarate], at 5-HT4 receptor [2], the EC50 was 0.02 µM.
For the compound `Nc1c(Cl)cc(C(=O)NCCC23CCCN2CCC3)c2c1C=CCO2` [Example 3, 5-Amino-N-2-(1-azabicyclo 3.3.0!octan-5-yl)ethyl!-6-chloro-2H-1-benzopyran-8-carboxamide·1/2 fumarate], the EC50 at 5-HT4 receptor [2] is 0.0251 µM.
With `O=C(NCCC12CCCN1CCC2)c1cccc2c1OCCC2` [Example 4, N-2-(1-Azabicyclo 3.3.0!octan-5-yl)ethyl!-3,4-dihydro-2H-1-benzopyran-8-carboxamide·1/2 fumarate], the EC50 at 5-HT4 receptor [2] is 12.6 µM.
Regarding `O=C(NCCC12CCCN1CCC2)c1ccc(Cl)c2c1OCCC2` [Example 5, N-2-(1-Azabicyclo 3.3.0!octan-5-yl)ethyl!-3,4-dihydro-5-chloro-2H-1-benzopyran-8-carboxamide· fumarate], the EC50 at 5-HT4 receptor [2] is 25.1 µM.
`O=C(NCCC12CCCN1CCC2)c1cc(Cl)cc2c1OCCC2` [Example 6, N-2-(1-Azabicyclo 3.3.0!octan-5-yl)ethyl!-3,4-dihydro-6-chloro-2H-1-benzopyran-8-carboxamide·1/2 fumarate]: the EC50 at 5-HT4 receptor [2] was 12.6 µM.
As to `COc1cc2c(c(C(=O)NCCC34CCCN3CCC4)c1)OCCC2` [Example 7, N-2-(1-Azabicyclo 3.3.0!octan-5-yl)ethyl!-3,4-dihydro-6-methoxy-2H-1-benzopyran-8-carboxamide·1/2 fumarate], the EC50 on 5-HT4 receptor [2] was 25.1 µM.
Regarding `Cc1ccc(C(=O)NCCC23CCCN2CCC3)c2c1CCCO2` [Example 8, N-2-(1-Azabicyclo 3.3.0!octan-5-yl)ethyl!-3,4-dihydro-5-methyl-2H-1-benzopyran-8-carboxamide·1/2 fumarate], the EC50 at 5-HT4 receptor [2] was 20 µM.
Still for that read-out and setting: then `Cc1cc2c(c(C(=O)NCCC34CCCN3CCC4)c1)OCCC2` [Example 9, N-2-(1-Azabicyclo 3.3.0!octan-5-yl)ethyl!-3,4-dihydro-6-methyl-2H-1-benzopyran-8-carboxamide·1/2 fumarate], with 15.8 µM; and `CC(=O)Nc1c(Cl)cc(C(=O)NCCC23CCCN2CCC3)c2c1CCCO2` [Example 10, 5-Acetylamino-N-2-(1-azabicyclo 3.3.0!octan-5-yl)ethyl!-6-chloro-3,4-dihydro-2H-1-benzopyran-8-carboxamide· fumarate], with 7.94 µM.
As to `CCN(CC)CCNC(=O)c1cc(Cl)c(N)cc1OC` [Metoclopramide, 4-amino-5-chloro-N-(2-diethylamino)ethyl!-2-methoxybenzamide], in the data set on dopamine D2 receptor, the “influence to central nerve system due to anti-dopamine action” value is “somewhat remarkable influence was recognized”.
